These compounds were tested against T1, human DP2 (Homo sapiens, UniProt Q9Y5Y4) (assay: DP-2 binding inhibition assay (3H-PGD2, membranes of DP2-expressing K562 cells)). Details: 0.1% BSA, read-out: EC50 (nM) 0.1% BSA.
T1 construct: expressed in transfected cells; membranes prepared
T1 sequence (Q9Y5Y4 1-395): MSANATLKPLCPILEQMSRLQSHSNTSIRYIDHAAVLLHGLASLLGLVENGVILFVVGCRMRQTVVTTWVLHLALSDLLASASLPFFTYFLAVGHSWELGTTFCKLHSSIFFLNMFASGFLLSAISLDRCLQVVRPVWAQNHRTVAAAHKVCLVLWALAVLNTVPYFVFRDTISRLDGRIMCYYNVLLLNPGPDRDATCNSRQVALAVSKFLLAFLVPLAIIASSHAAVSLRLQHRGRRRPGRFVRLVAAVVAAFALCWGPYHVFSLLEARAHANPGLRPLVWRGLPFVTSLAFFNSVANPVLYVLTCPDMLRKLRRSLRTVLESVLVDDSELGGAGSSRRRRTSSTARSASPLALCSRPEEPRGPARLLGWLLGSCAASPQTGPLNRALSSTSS
Description: The coding sequence of human DP2 was introduced into the human Leukemic cell line K562 by electroporation and stable clones expressing DP2 were obtained by limiting dilution followed by cell surface staining with a rat monoclonal antibody specific for human DP2. Membranes were prepared from one of these DP2 expressing clones and used to determine the ability of the compounds of the present invention to inhibit binding of prostaglandin D2 (PGD2) to its receptor DP2 in the presence of one or more of the following serum protein concentrations, 0.1% BSA, 1% HSA or 4% HSA, by the following procedure. […] After incubation for 60 minutes at room temperature, the assay was transferred to a filtration plate (#MAFB; Millipore Corporation, Bedford, Mass.), and washed three times with binding buffer. Radioactivity was measured by a scintillation counter (TopCount; PerkinElmer Life Sciences, Boston, Mass.). Nonspecific binding was determined by incubations in the presence of 1 μM unlabeled PGD2 or 5 μM of a known DP2 antagonist. IC50 values for inhibition of binding were determined for each compound tested from the inflexion point of a standard 4-parameter logistical curve fitted to the values obtained.

| SMILES | EC50 [nM] |
| --- | --- |
| O=C(Nc1ccc(C(F)(F)F)nc1)c1ccc(Oc2cc3c(cc2Cl)C(C(=O)O)CCO3)cc1 (centres unmarked) [Example 29, 6-Chloro-7-(4-(6-(trifluoromethyl)pyridin-3-ylcarbamoyl)phenoxy)chroman-4-carboxylic acid] | 34.7 |
| O=C(Nc1ccc2cc(Cl)ccc2n1)c1ccc(Oc2cc3c(cc2Cl)C(C(=O)O)CCO3)cc1 (centres unmarked) [Example 30, 6-Chloro-7-(4-(6-chloroquinolin-2-ylcarbamoyl)phenoxy)chroman-4-carboxylic acid] | 13 |

Same assay, conditions: 1% HSA, read-out: EC50 (nM) 1% HSA

| SMILES | EC50 [nM] |
| --- | --- |
| O=C(Nc1ccc(C(F)(F)F)nc1)c1ccc(Oc2cc3c(cc2Cl)C(C(=O)O)CCO3)cc1 (centres unmarked) [Example 29, 6-Chloro-7-(4-(6-(trifluoromethyl)pyridin-3-ylcarbamoyl)phenoxy)chroman-4-carboxylic acid] | 661 |
| O=C(Nc1ccc2cc(Cl)ccc2n1)c1ccc(Oc2cc3c(cc2Cl)C(C(=O)O)CCO3)cc1 (centres unmarked) [Example 30, 6-Chloro-7-(4-(6-chloroquinolin-2-ylcarbamoyl)phenoxy)chroman-4-carboxylic acid] | 120 |

Same assay, conditions: 4% HSA, read-out: EC50 (nM) 4% HSA

| SMILES | EC50 [nM] |
| --- | --- |
| O=C(Nc1ccc2c(Cl)cccc2n1)c1ccc(Oc2cc3c(cc2Cl)C(C(=O)O)CCO3)cc1 (centres unmarked) [Example 19, 6-Chloro-7-(4-(5-chloroquinolin-2-ylcarbamoyl)phenoxy)chroman-4-carboxylic acid] | 210 |
| O=C(Nc1cnc2ccc(Cl)cc2n1)c1ccc(Oc2cc3c(cc2Cl)C(C(=O)O)CCO3)cc1 (centres unmarked) [Example 20, 6-Chloro-7-(4-(7-chloroquinoxalin-2-ylcarbamoyl)phenoxy)chroman-4-carboxylic acid] | 255 |
| Cc1cc(NC(=O)c2ccc(Oc3cc4c(cc3Cl)C(C(=O)O)CCO4)cc2)nc2ccccc12 (centres unmarked) [Example 21, 6-Chloro-7-(4-(4-methylquinolin-2-ylcarbamoyl)phenoxy)chroman-4-carboxylic acid] | 265 |
| COc1ccc2nc(NC(=O)c3ccc(Oc4cc5c(cc4Cl)C(C(=O)O)CCO5)cc3)ccc2c1 (centres unmarked) [Example 22, 6-Chloro-7-(4-(6-methoxyquinolin-2-ylcarbamoyl)phenoxy)chroman-4-carboxylic acid] | 466 |
| O=C(Nc1ccc2ccccc2n1)c1ccc(Oc2cc3c(cc2Cl)C(C(=O)O)CCO3)cc1 (centres unmarked) [Example 23, 6-Chloro-7-(4-(quinolin-2-ylcarbamoyl)phenoxy)chroman-4-carboxylic acid] | 586 |
| Cc1cccc2ccc(NC(=O)c3ccc(Oc4cc5c(cc4Cl)C(C(=O)O)CCO5)cc3)nc12 (centres unmarked) [Example 24, 6-Chloro-7-(4-(8-methylquinolin-2-ylcarbamoyl)phenoxy)chroman-4-carboxylic acid] | 764 |
| O=C(Nc1ccc2cccc(Cl)c2n1)c1ccc(Oc2cc3c(cc2Cl)C(C(=O)O)CCO3)cc1 (centres unmarked) [Example 25, 6-Chloro-7-(4-(8-chloroquinolin-2-ylcarbamoyl)phenoxy)chroman-4-carboxylic acid] | 5980 |
| Cc1cc2ccccc2nc1NC(=O)c1ccc(Oc2cc3c(cc2Cl)C(C(=O)O)CCO3)cc1 (centres unmarked) [Example 26, 6-Chloro-7-(4-(3-methylquinolin-2-ylcarbamoyl)phenoxy)chroman-4-carboxylic acid] | 1910 |
| O=C(Nc1cccc(-c2ccccc2)n1)c1ccc(Oc2cc3c(cc2Cl)C(C(=O)O)CCO3)cc1 (centres unmarked) [Example 27, 6-chloro-7-(4-(6-phenylpyridin-2-ylcarbamoyl)phenoxy)chroman-4-carboxylic acid] | 173 |
| O=C(Nc1cccc(C(F)(F)F)n1)c1ccc(Oc2cc3c(cc2Cl)C(C(=O)O)CCO3)cc1 (centres unmarked) [Example 28, 6-Chloro-7-(4-(6-(trifluoromethyl)pyridin-2-ylcarbamoyl)phenoxy)chroman-4-carboxylic acid] | 187 |
| O=C(Nc1ccc(C(F)(F)F)nc1)c1ccc(Oc2cc3c(cc2Cl)C(C(=O)O)CCO3)cc1 (centres unmarked) [Example 29, 6-Chloro-7-(4-(6-(trifluoromethyl)pyridin-3-ylcarbamoyl)phenoxy)chroman-4-carboxylic acid] | 49.5 |
| O=C(Nc1ccc2cc(Cl)ccc2n1)c1ccc(Oc2cc3c(cc2Cl)C(C(=O)O)CCO3)cc1 (centres unmarked) [Example 30, 6-Chloro-7-(4-(6-chloroquinolin-2-ylcarbamoyl)phenoxy)chroman-4-carboxylic acid] | 134 |
| O=C(Nc1cc(C(F)(F)F)ccn1)c1ccc(Oc2cc3c(cc2Cl)C(C(=O)O)CCO3)cc1 (centres unmarked) [Example 31, 6-Chloro-7-(4-(4-(trifluoromethyl)pyridin-2-ylcarbamoyl)phenoxy)chroman-4-carboxylic acid] | 1730 |
| O=C(Nc1cncc(-c2ccccc2)n1)c1ccc(Oc2cc3c(cc2Cl)C(C(=O)O)CCO3)cc1 (centres unmarked) [Example 32, 6-Chloro-7-(4-(6-phenylpyrazin-2-ylcarbamoyl)phenoxy)chroman-4-carboxylic acid] | 401 |
| O=C(Nc1cccc(-c2ccc(Cl)cc2)n1)c1ccc(Oc2cc3c(cc2Cl)C(C(=O)O)CCO3)cc1 (centres unmarked) [Example 33, 6-Chloro-7-(4-(6-(4-chlorophenyl)pyridin-2-ylcarbamoyl)phenoxy)chroman-4-carboxylic acid] | 30 |
| O=C(Nc1cccc(-c2cccc(Cl)c2)n1)c1ccc(Oc2cc3c(cc2Cl)C(C(=O)O)CCO3)cc1 (centres unmarked) [Example 34, 6-Chloro-7-(4-(6-(3-chlorophenyl)pyridin-2-ylcarbamoyl)phenoxy)chroman-4-carboxylic acid] | 241 |

| SMILES | EC50 [nM] |
| --- | --- |
| Cc1cccc(-c2cccc(NC(=O)c3ccc(Oc4cc5c(cc4C#N)C(C(=O)O)CCO5)cc3)n2)c1C (centres unmarked) [Example 40, 6-Cyano-7-(4-(6-(2,3-dimethylphenyl)pyridin-2-ylcarbamoyl)-phenoxy)-chroman-4-carboxylic acid] | 120 |
| N#Cc1cc2c(cc1Oc1ccc(C(=O)Nc3cccc(-c4cccc(C(F)(F)F)c4)n3)cc1)OCCC2C(=O)O (centres unmarked) [Example 41, 6-Cyano-7-(4-(6-(3-(trifluoromethyl)phenyl)pyridin-2-ylcarbamoyl)-phenoxy)chroman-4-carboxylic acid] | 50.8 |
| N#Cc1cc2c(cc1Oc1ccc(C(=O)Nc3cccc(-c4ccc(C(F)(F)F)cc4)n3)cc1)OCCC2C(=O)O (centres unmarked) [Example 42, 6-Cyano-7-(4-(6-(4-(trifluoromethyl)phenyl)pyridin-2-ylcarbamoyl)-phenoxy)chroman-4-carboxylic acid] | 36.1 |
| N#Cc1cc2c(cc1Oc1ccc(C(=O)Nc3cccc(-c4ccc5c(c4)CCO5)n3)cc1)OCCC2C(=O)O (centres unmarked) [Example 43, 6-Cyano-7-(4-(6-(2,3-dihydrobenzofuran-5-yl)pyridin-2-ylcarbamoyl)-phenoxy)chroman-4-carboxylic acid] | 291 |
| O=C(Nc1ccc(F)c(-c2ccc(Cl)cc2)n1)c1ccc(Oc2cc3c(cc2Cl)C(C(=O)O)CCO3)cc1 (centres unmarked) [Example 44, Sodium 6-Chloro-7-(4-(6-(4-chlorophenyl)-5-fluoropyridin-2-ylcarbamoyl)phenoxy)chroman-4-carboxylate] | 5000 |
| N#Cc1cc2c(cc1Oc1ccc(C(=O)Nc3cccc(-c4ccc(Cl)cc4Cl)n3)cc1)OCCC2C(=O)O (centres unmarked) [Example 49, 6-Cyano-7-(4-(6-(2,4-dichlorophenyl)pyridin-2-ylcarbamoyl)phenoxy)chroman-4-carboxylic acid] | 87.3 |
| N#Cc1cc2c(cc1Oc1ccc(C(=O)Nc3cccc(-c4cccc(Cl)c4)n3)cc1)OCCC2C(=O)O (centres unmarked) [Example 50, 7-(4-(6-(3-Chlorophenyl)pyridin-2-ylcarbamoyl)phenoxy)-6-cyanochroman-4-carboxylic acid] | 135 |
| N#Cc1cc2c(cc1Oc1ccc(C(=O)Nc3cccc(-c4ccc(Cl)cc4)n3)cc1)OCCC2C(=O)O (centres unmarked) [Example 51, 7-(4-(6-(4-Chlorophenyl)pyridin-2-ylcarbamoyl)phenoxy)-6-cyanochroman-4-carboxylic acid] | 51.3 |
| O=C(Nc1cccc(-c2ccc(Cl)c(Cl)c2)n1)c1ccc(Oc2cc3c(cc2Cl)C(C(=O)O)CCO3)cc1 (centres unmarked) [Example 52, 6-Chloro-7-(4-(6-(3,4-dichlorophenyl)pyridin-2-ylcarbamoyl)phenoxy)chroman-4-carboxylic acid] | 50.8 |
| O=C(Nc1cccc(-c2ccc(Cl)c(C(F)(F)F)c2)n1)c1ccc(Oc2cc3c(cc2Cl)C(C(=O)O)CCO3)cc1 (centres unmarked) [Example 53, 6-Chloro-7-(4-(6-(4-chloro-3-(trifluoromethyl)phenyl)pyridin-2-ylcarbamoyl)phenoxy)chroman-4-carboxylic acid] | 40.9 |
| COc1ccc(-c2cccc(NC(=O)c3ccc(Oc4cc5c(cc4Cl)C(C(=O)O)CCO5)cc3)n2)cn1 (centres unmarked) [Example 54, Sodium 6-chloro-7-(4-(6′-methoxy-2,3′-bipyridin-6-ylcarbamoyl)phenoxy)chroman-4-carboxylate] | 337 |
| COc1ccc(-c2cccc(NC(=O)c3ccc(Oc4cc5c(cc4Cl)C(C(=O)O)CCO5)cc3)n2)c(OC)n1 (centres unmarked) [Example 55, Sodium 6-chloro-7-(4-(2′,6′-dimethoxy-2,3′-bipyridin-6-ylcarbamoyl)phenoxy)chroman-4-carboxylate] | 258 |
| O=C(Nc1cccc(-c2ccccc2Cl)n1)c1ccc(Oc2cc3c(cc2Cl)C(C(=O)O)CCO3)cc1 (centres unmarked) [Example 56, 6-Chloro-7-(4-(6-(2-chlorophenyl)pyridin-2-ylcarbamoyl)phenoxy)chroman-4-carboxylic acid] | 582 |
| Cc1ccc(-c2cccc(NC(=O)c3ccc(Oc4cc5c(cc4Cl)C(C(=O)O)CCO5)cc3)n2)cc1 (centres unmarked) [Example 57, 6-Chloro-7-(4-(6-p-tolylpyridin-2-ylcarbamoyl)phenoxy)chroman-4-carboxylic acid] | 39.4 |
| COc1ccc(-c2cccc(NC(=O)c3ccc(Oc4cc5c(cc4Cl)C(C(=O)O)CCO5)cc3)n2)cc1 (centres unmarked) [Example 58, 6-Chloro-7-(4-(6-(4-methoxyphenyl)pyridin-2-ylcarbamoyl)phenoxy)chroman-4-carboxylic acid] | 67 |

Source: patent US8785445B2 (Array BioPharma Inc., priority 2008, dated 2014)
